Here are results for three compounds from patent US6534507B1 (Fabre-Kramer Pharmaceuticals, Inc., priority 1999, dated 2003).

Where “and” joins values, the source holds several entries; their conditions need not be identical. Equal values may be shown once.

One series addresses T1, Alpha 2B (Homo sapiens, UniProt P18089).
T1 construct: expressed in transfected cells
T1 sequence (P18089 1-450): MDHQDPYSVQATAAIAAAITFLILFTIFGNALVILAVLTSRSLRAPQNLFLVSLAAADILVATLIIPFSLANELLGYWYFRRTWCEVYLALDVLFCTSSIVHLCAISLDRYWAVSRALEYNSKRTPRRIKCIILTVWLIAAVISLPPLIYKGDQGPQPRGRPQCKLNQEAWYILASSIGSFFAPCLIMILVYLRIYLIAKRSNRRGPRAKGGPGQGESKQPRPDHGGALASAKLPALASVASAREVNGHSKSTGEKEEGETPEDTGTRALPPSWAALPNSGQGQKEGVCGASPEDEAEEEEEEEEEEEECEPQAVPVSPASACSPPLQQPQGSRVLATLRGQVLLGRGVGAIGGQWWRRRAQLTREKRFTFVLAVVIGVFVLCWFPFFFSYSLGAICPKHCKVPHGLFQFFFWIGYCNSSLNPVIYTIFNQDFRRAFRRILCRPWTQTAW
Put plainly: alpha-adrenergic receptor binding, Alpha 2B. Conditions: result in words. The procedure:
(§1) As known in the art, human monoamine GPCR binding profiles were obtained using heterologously expressed cloned human GPCRs in the binding experiments. Both pKi and IC50 (nM concentration) values were obtained as well as an average value of each from at least three determinations.
(§2) Dopaminergic receptors D2A, D2B, D3, and D4 were also tested.

For the next series, the target named is T2, Alpha 2C receptor (Homo sapiens, UniProt P18825).
T2 construct: expressed in transfected cells
T2 sequence (P18825 1-462): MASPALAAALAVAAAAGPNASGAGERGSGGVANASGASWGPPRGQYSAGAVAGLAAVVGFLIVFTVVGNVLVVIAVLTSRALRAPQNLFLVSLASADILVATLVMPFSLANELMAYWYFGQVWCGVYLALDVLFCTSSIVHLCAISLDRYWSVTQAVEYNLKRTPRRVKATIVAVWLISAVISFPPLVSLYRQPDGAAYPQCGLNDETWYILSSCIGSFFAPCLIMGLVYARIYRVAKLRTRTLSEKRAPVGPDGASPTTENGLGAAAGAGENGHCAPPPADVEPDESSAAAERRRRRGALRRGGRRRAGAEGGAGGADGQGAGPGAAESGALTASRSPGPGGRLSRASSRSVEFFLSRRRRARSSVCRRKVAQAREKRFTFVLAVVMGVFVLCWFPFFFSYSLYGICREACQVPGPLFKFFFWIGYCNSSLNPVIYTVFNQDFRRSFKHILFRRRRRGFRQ
Put plainly: alpha-adrenergic receptor binding, Alpha 2C. Conditions: result in words. The protocol:
as §1, §2

Series [1] is described as follows: plasma levels of 3-OH gepirone after administration of gepirone. It counts as in vivo. Conditions: human subjects administered a dose of gepirone; FIG. 2; result in words. The procedure:
“Time (H)” represents time after administration.
Each sample corresponds to a 0.5 ml plasma sample, extracted with 6 ml of (2:1) (v/v) hexane:chloroform for 1 hour. After separation by centrifuge, the organic layer is transferred to a 10 ml conical tube and 90 ul of 1% formic acid is added. The tube is vortexed for 10 minutes and centrifuged for 5 minutes. About 80 ul of the formic acid layer is transferred into injection vials for HPLC/MS analysis.

Another series concerns the target T3, M3 (Homo sapiens, UniProt P20309).
T3 construct: expressed in transfected cells
Put plainly: muscarinic receptor binding, M3. Conditions: read-out: pKi M3 (converted).
Description: as §1

The next series deals with T4, Alpha 2A (Homo sapiens, UniProt P08913).
T4 construct: expressed in transfected cells
T4 sequence (P08913 1-465): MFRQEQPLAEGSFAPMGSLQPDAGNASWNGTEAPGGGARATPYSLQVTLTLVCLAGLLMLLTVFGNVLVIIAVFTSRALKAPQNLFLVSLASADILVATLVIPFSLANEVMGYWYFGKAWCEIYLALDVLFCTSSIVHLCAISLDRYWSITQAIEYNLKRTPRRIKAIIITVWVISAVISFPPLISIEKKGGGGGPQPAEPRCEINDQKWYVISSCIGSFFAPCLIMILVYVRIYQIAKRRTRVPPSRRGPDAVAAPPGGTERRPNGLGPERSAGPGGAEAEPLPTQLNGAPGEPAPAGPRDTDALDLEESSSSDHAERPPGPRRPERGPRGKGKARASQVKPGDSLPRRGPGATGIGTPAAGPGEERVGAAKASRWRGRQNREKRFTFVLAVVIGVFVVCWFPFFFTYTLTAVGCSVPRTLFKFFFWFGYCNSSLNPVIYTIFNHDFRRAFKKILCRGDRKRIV
Put plainly: alpha-adrenergic receptor binding, Alpha 2A. Conditions: result in words. The procedure:
as §1, §2

A further series deals with T5, D3 (Homo sapiens, UniProt P35462).
T5 construct: expressed in transfected cells
Put plainly: dopaminergic receptor binding, D3. Conditions: result in words. The protocol:
as §1, §2

For a further series, the target named is T6, M2 (Homo sapiens, UniProt P08172).
T6 construct: expressed in transfected cells
T6 sequence (P08172 1-466): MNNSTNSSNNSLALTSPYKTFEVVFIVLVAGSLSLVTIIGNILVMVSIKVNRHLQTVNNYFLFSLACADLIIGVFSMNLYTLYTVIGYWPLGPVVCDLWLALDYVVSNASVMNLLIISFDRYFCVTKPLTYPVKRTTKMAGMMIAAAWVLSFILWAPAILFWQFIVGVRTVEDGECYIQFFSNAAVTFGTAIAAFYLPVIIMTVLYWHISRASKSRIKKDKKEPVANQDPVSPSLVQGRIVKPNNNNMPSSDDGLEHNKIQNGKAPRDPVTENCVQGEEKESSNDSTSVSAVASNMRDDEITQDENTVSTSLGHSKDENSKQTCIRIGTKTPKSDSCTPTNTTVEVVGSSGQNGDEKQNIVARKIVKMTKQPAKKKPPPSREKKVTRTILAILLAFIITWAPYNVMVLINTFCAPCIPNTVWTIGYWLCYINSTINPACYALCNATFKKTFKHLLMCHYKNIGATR
Put plainly: muscarinic receptor binding, M2. Conditions: read-out: pKi M2 (converted).
Description: as §1

The target in another series is T7, D4 (Homo sapiens, UniProt P21917).
T7 construct: expressed in transfected cells
T7 sequence (P21917 1-419): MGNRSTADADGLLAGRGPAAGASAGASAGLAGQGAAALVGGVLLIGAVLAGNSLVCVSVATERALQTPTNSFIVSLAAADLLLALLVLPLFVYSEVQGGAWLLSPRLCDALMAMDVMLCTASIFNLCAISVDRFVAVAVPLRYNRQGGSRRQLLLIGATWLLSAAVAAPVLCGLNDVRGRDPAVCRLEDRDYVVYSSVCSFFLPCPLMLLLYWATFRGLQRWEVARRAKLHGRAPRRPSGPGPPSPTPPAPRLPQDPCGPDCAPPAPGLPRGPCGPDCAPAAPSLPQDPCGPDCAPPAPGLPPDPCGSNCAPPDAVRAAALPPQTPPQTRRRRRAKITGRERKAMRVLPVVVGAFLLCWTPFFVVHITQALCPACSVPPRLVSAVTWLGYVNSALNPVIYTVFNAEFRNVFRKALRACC
Put plainly: dopaminergic receptor binding, D4. The procedure: as §1, §2

For another series, the target named is T8, M1 (Homo sapiens, UniProt P11229).
T8 construct: expressed in transfected cells
T8 sequence (P11229 1-460): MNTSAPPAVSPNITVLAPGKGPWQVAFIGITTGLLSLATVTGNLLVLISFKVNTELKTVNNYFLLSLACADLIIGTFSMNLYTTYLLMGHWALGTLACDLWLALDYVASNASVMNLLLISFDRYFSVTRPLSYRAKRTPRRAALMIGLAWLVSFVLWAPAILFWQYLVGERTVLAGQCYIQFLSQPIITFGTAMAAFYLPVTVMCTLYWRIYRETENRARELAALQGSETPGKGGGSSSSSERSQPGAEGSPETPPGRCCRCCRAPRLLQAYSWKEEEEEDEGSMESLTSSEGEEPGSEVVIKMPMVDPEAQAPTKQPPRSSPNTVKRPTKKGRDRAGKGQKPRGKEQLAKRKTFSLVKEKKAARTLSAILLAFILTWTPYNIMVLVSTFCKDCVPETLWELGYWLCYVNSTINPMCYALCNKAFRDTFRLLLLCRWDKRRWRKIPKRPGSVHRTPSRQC
Put plainly: muscarinic receptor binding, M1. Conditions: read-out: pKi M1 (converted).
Description: as §1

Another series addresses T9, 5-HT1A receptor (Homo sapiens, UniProt P08908).
T9 construct: expressed in transfected cells
T9 sequence (P08908 1-422): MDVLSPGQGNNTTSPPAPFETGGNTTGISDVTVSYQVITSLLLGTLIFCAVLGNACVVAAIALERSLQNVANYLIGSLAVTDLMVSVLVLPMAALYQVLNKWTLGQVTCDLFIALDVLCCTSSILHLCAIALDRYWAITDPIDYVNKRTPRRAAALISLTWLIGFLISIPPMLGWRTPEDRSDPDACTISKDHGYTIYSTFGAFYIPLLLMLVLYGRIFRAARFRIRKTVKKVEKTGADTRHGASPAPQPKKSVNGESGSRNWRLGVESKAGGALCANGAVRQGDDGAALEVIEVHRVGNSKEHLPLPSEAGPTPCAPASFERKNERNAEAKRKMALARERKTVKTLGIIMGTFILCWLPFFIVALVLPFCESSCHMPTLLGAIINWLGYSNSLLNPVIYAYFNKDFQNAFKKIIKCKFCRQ
Put plainly: human monoamine GPCR binding profile, 5-HT1A.
Description: as §1

In a further series the target is T10, D2A (Homo sapiens, UniProt P14416).
T10 construct: expressed in transfected cells
Put plainly: dopaminergic receptor binding, D2A. Conditions: result in words. The procedure: as §1, §2

The target in the next series is T11, M4 (Homo sapiens, UniProt P08173).
T11 construct: expressed in transfected cells
T11 sequence (P08173 1-479): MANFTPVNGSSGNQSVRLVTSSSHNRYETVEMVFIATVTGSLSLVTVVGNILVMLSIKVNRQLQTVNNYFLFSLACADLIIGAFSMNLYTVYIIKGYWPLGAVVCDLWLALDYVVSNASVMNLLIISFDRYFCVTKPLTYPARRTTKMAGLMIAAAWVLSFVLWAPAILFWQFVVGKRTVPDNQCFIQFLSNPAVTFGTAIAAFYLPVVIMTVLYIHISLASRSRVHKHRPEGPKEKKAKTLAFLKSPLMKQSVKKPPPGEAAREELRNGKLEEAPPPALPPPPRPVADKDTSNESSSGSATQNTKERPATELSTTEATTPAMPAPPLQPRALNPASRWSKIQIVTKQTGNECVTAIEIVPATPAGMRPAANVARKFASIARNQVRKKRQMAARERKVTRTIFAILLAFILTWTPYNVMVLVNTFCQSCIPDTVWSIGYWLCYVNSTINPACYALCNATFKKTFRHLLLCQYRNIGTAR
Put plainly: muscarinic receptor binding, M4. Conditions: read-out: pKi M4 (converted).
Description: as §1

The target of another series is T12, D2B (Homo sapiens, UniProt P14416).
T12 construct: expressed in transfected cells
Put plainly: dopaminergic receptor binding, D2B. Conditions: result in words. The procedure: as §1, §2

For series [2] the following is noted: cited from earlier work; for half-life: result in words.

T3 sequence (P20309 whole entry): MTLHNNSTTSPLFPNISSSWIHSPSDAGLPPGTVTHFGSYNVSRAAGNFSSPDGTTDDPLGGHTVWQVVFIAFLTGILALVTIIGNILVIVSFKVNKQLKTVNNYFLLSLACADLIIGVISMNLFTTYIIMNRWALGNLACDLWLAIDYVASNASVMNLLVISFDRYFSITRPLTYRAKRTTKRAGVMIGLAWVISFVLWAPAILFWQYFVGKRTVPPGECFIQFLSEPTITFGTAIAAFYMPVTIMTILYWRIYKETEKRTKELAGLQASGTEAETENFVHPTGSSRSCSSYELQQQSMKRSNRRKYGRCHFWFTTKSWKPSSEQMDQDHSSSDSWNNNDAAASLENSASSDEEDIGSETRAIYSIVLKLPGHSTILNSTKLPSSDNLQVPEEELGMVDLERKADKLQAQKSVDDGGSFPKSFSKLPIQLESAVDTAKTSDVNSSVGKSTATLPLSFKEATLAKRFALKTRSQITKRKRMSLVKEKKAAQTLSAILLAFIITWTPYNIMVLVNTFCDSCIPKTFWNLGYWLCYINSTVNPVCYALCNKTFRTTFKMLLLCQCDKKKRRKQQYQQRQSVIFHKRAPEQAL
T12 sequence (P14416 1-414 isoform P14416-2): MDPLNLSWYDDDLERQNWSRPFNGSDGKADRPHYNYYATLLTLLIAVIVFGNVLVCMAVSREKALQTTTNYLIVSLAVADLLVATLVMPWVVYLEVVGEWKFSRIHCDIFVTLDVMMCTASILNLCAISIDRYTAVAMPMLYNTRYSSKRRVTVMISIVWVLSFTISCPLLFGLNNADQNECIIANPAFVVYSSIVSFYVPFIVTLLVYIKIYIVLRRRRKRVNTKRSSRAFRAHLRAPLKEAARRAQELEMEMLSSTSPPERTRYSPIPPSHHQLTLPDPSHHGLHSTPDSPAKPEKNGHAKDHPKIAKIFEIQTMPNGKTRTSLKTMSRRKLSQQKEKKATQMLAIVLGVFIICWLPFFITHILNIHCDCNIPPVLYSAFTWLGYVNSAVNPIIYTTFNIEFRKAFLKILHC
T5 sequence (P35462 whole entry): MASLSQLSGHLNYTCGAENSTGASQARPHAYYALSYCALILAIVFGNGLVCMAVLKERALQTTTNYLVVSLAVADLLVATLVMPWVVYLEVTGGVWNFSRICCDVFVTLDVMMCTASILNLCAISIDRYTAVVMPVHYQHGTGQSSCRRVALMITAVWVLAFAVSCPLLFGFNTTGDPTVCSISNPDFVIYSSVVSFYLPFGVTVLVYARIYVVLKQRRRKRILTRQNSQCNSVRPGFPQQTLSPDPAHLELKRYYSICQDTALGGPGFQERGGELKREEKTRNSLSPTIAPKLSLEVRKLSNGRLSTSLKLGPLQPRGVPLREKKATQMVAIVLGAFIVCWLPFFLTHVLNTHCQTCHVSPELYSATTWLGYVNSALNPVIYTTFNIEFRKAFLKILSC
T10 sequence (P14416 whole entry): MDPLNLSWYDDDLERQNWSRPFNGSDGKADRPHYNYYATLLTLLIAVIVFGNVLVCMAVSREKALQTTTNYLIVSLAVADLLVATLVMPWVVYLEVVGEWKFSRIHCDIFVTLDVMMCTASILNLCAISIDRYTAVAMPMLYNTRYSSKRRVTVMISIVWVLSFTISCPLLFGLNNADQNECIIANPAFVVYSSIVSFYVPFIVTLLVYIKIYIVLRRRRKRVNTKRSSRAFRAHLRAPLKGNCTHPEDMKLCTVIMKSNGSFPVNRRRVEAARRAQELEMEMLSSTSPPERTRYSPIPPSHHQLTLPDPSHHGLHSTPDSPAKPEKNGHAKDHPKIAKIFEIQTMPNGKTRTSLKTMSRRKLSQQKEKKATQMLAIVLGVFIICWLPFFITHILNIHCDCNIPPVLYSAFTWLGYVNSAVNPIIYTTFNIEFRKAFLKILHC

Broadly, the IC50 is the concentration at which inhibition is half-maximal. Low readings indicate higher potency, high ones lower potency. On to `CC1(C)CC(=O)N(CCCCN2CCN(c3ncccn3)CC2)C(=O)C1O` (stereo not drawn) [3-OH gepirone, 4,4,-dimethyl-3-hydroxy-1-[4-[4-(2-pyrimidinyl)-1-piperazinyl]butyl]-2,6-piperidinedione], for which the “affinity at Alpha 2B” value on Alpha 2B is listed as “did not display significant affinity”. In addition, the “binding at the Alpha 2C receptor” value on Alpha 2C receptor is recorded as “weak binding”. In addition, the “plasma levels of 3-OH gepirone” value in [1] is “available quickly and persists in the plasma for extended periods of time”. The Ki on M3, on M2, on M1 and at M4 was more than 45.7 µM each time. Also, the “affinity at Alpha 2A” value on Alpha 2A is listed as “did not display significant affinity”. The “binding at D3” value at D3 was “insignificant dopaminergic binding”. The IC50 on D4 is approximately 1.42 µM; on 5-HT1A receptor (cloned human GPCR, average of at least three determinations), < 0.1 µM and ~0.058 µM. In addition, on 5-HT1A receptor (in vitro binding studies, result in words), the “selectivity for the 5-HT1A receptor among the serotonergic receptor subtypes” value is “highly selective”. For the same compound, the “binding at D2A” value at D2A was “insignificant dopaminergic binding”. Also, the “binding at D2B” value on D2B is “insignificant dopaminergic binding”.

As for `O=C1CC2(CCCC2)CC(=O)N1CCCCN1CCN(c2ncccn2)CC1` [buspirone], the half-life entry in [2] is “very short”.

With `CC1(C)CC(=O)N(CCCCN2CCN(c3ncccn3)CC2)C(=O)C1` [gepirone, 4-dimethyl-1-[4-[4-(2-pyrimidinyl)-1-piperazinyl]butyl]-2,6-piperidinedione, reference compound], the Ki on M3, at M2, on M1 and at M4 was more than 45.7 µM throughout. For the same compound, the bioavailability in [2] (delivered orally) was 14-18%. Also, the half-life entry in [2] is “very short”.
